Assay results as given in US10815241B2, “Optically active azabicyclo ring derivative” (priority 2018, dated 2020).
Entries after “also recorded” stand apart in the source; their conditions may differ.

Tests used:
[1] = molecular target: Menin-MLL binding (His-Menin1-615 / MLL1-172-FLAG) (Homo sapiens (Human), UniProt O00255); assay: Test 1: inhibition of the Menin-MLL binding (HTRF); details: for IC50: Menin-MLL binding inhibition; for Menin-MLL binding inhibition activity: statement in words on the table of Test 1
Chain of Menin-MLL binding (His-Menin1-615 / MLL1-172-FLAG) (O00255 other isoform, or with tags, fused parts or gaps): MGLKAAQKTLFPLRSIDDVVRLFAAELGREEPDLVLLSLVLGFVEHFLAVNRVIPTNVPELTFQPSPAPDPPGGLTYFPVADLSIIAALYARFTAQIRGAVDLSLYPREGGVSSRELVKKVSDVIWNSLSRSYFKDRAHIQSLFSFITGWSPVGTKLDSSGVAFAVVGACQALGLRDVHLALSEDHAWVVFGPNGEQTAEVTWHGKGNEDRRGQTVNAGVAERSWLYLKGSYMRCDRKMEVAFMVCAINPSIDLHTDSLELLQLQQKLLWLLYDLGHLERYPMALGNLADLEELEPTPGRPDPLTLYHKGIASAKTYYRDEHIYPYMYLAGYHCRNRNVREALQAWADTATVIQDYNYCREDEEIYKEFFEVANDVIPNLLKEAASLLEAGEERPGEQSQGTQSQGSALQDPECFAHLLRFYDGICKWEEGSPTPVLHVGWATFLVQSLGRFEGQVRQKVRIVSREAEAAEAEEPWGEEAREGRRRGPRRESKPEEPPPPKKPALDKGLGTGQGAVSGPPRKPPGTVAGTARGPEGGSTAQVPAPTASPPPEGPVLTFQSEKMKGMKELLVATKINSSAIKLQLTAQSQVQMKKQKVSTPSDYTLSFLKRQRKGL
Protocol: After the incubation, the signal was detected with RUBYstar (BMG LABTECH).

RS4; 11 cells = assay: Test 2: inhibition of cell proliferation, RS4;11; type: cell-based; details: for IC50: Homo sapiens, RS4;11 cells, 7 days, PrestoBlue cell viability; for cell proliferation inhibition activity: statement in words, RS4;11 and MOLM-13 cells
Protocol: (§1) RS4; 11 cells were obtained from American Type Culture Collection (ATCC). […] MOLM-13 cells were separately obtained from DSMZ (Deutsche Sammlung von Mikroorganismen und Zellkulturen GmbH).
(§2) The cells were plated to a 96-well plate in 2000 cells/well, each test compound was added thereto to adjust the final concentration of DMSO to 0.1% of DMSO, and the cells were cultured for 7 days. After the cultivation, the cell viability was calculated with PrestoBlue™ Cell Viability Reagent (Invitrogen, A13261).

MOLM-13 cells = assay: Test 2: inhibition of cell proliferation, MOLM-13; type: cell-based; details: Homo sapiens, 7 days, PrestoBlue cell viability
Protocol: as §1, §2

MEIS1 = assay: Test 3: inhibition of mRNA transcription, MEIS1 in MV4;11 cells; type: cell-based; details: for mRNA at 1 μM (% control) MEIS1: MV4;11 cells, 20 to 24 hours, relative to GAPDH; for mRNA transcription inhibition activity: statement in words, MEIS1 and HOXA9, MV4;11 cells
Source text: (§3) MV4; 11 cells were obtained from American Type Culture Collection (ATCC). […] The expression level of each obtained gene (MEIS1 and HOXA9) was fitted with the expression level of mRNA of GAPDH.

HOXA9 = assay: Test 3: inhibition of mRNA transcription, HOXA9 in MV4;11 cells; type: cell-based; details: 20 to 24 hours, relative to GAPDH
Source text: as §3

[2] = molecular target: hERG (human Ether-a-go-go Related Gene) (Homo sapiens (Human), UniProt Q12809); assay: Test 4: hERG inhibition (QPatch HT, CHO cells stably expressing hERG); details: for hERG/RS4; 11: hERG IC50 divided by RS4;11 proliferation IC50
Chain of hERG (human Ether-a-go-go Related Gene) (Q12809 whole entry): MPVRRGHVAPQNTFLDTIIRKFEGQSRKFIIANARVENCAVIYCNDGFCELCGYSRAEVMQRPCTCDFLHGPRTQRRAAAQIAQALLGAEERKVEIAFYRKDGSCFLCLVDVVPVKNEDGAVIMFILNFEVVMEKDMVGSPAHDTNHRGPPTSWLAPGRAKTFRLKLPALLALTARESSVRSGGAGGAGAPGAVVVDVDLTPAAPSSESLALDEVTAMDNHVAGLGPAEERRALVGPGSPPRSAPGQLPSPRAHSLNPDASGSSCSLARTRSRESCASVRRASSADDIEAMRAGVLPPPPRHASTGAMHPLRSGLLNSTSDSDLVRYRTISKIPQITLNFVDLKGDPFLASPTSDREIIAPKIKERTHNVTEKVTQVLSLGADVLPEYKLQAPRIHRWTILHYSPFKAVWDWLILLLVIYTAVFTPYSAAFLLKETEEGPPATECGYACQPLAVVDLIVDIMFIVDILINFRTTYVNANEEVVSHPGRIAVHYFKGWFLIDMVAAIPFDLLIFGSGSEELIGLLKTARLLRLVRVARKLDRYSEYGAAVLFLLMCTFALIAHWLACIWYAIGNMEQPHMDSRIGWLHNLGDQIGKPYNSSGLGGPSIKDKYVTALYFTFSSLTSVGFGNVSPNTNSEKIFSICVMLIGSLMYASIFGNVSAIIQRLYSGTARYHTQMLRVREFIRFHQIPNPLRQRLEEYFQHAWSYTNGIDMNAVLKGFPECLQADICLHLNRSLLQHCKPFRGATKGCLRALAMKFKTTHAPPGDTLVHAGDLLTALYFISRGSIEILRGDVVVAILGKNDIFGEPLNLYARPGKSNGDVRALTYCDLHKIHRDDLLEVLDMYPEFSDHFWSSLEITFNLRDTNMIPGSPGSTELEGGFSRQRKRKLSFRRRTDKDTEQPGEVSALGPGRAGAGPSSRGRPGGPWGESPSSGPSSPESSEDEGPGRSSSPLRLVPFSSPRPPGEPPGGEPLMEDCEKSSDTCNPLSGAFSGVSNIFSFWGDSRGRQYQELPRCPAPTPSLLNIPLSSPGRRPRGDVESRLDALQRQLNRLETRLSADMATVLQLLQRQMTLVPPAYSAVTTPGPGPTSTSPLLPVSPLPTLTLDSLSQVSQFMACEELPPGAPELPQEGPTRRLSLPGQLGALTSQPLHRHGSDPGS

| Structure (SMILES) | IC50 [1] [nM] | Menin-MLL binding inhibition activity [1] | IC50 (RS4; 11 cells) [nM] | cell proliferation inhibition activity (RS4; 11 cells) | IC50 (MOLM-13 cells) [nM] | mRNA at 1 μM (% control) MEIS1 (MEIS1) [% control] | mRNA transcription inhibition activity (MEIS1) | mRNA at 1 μM (% control) HOXA9 (HOXA9) [% control] | IC50 [2] [nM] | gap between RS4; 11 proliferation IC50 and hERG current IC50 [2] | hERG/RS4; 11 [2] |
| --- | --- | --- | --- | --- | --- | --- | --- | --- | --- | --- | --- |
| CC(C)N(C(=O)c1cc(F)ccc1Oc1cncnc1N1CC2(CCN(C(=O)[C@H]3N[C@H]4CC[C@@H]3C[C@@H]4CC3CC3)CC2)C1)C(C)C [Example 1, 2-[(4-{7-[(1S,3S,4R,6S)-6-(Cyclopropylmethyl)-2-azabicyclo[2.2.2]octane-3-carbonyl]-2,7-diazaspiro[3.5]nonan-2-yl}pyrimidin-5-yl)oxy]-5-fluoro-N,N-di(propan-2-yl)benzamide] | 5.3 | potent | < 10 | potent | 20 | 11.8 | showed the mRNA transcription inhibition activity | 40.2 | 4000 | more than 100 fold | >400 |
| CC(C)N(C(=O)c1cc(F)ccc1Oc1cncnc1N1CC2(CN(C(=O)[C@H]3N[C@H]4CC[C@@H]3C[C@@H]4CC3CC3)C2)C1)C(C)C [Example 3, 2-[(4-{6-[(1S,3S,4R,6S)-6-(cyclopropylmethyl)-2-azabicyclo[2.2.2]octane-3-carbonyl]-2,6-diazaspiro[3.3]heptan-2-yl}pyrimidin-5-yl)oxy]-5-fluoro-N,N-di(propan-2-yl)benzamide] | < 3 | particularly potent | 30 | potent | 10 | 11.9 | showed the mRNA transcription inhibition activity | 39.6 | 6200 | more than 100 fold | 620 |
| CC(C)N(C(=O)c1cc(F)ccc1Oc1cncnc1N1CC2(CCN(C(=O)[C@H]3N[C@H]4CC[C@@H]3C[C@H]4CC3CC3)CC2)C1)C(C)C [Example 4, 2-[(4-{7-[(1S,3S,4R,6R)-6-(cyclopropylmethyl)-2-azabicyclo[2.2.2]octane-3-carbonyl]-2,7-diazaspiro[3.5]nonan-2-yl}pyrimidin-5-yl)oxy]-5-fluoro-N,N-di(propan-2-yl)benzamide] | 7.1 | potent | 40 | potent | 70 | 18.0 | showed the mRNA transcription inhibition activity | 43.7 | 5800 | more than 100 fold | 145 |
| CC(C)N(C(=O)c1cc(F)ccc1Oc1cncnc1N1CC2(CN(C(=O)[C@H]3N[C@H]4CC[C@@H]3C[C@H]4CC3CC3)C2)C1)C(C)C [Example 5, 2-[(4-{6-[(1S,3S,4R,6R)-6-(cyclopropylmethyl)-2-azabicyclo[2.2.2]octane-3-carbonyl]-2,6-diazaspiro[3.3]heptan-2-yl}pyrimidin-5-yl)oxy]-5-fluoro-N,N-di(propan-2-yl)benzamide] | 4.1 | potent | 20 | potent; also recorded: excellent | 30 | 15.5 | showed the mRNA transcription inhibition activity | 42.6 | 7900 | more than 100 fold | 395 |
| C=C1C[C@H]2CC[C@@H]1N[C@@H]2C(=O)N1CC2(C1)CN(c1ncncc1Oc1ccc(F)cc1C(=O)N(C(C)C)C(C)C)C2 [Example 9, 5-fluoro-2-[(4-{6-[(1S,3S,4R)-6-methylidene-2-azabicyclo[2.2.2]octane-3-carbonyl]-2,6-diazaspiro[3.3]heptan-2-yl}pyrimidin-5-yl)oxy]-N,N-di(propan-2-yl)benzamide] | – | – | 80 | – | 80 | 17.0 | – | 41.2 | > 10000 | more than 100 fold | >125 |
| CC(C)N(C(=O)c1cc(F)ccc1Oc1cncnc1N1CC2(CN(C(=O)[C@H]3N[C@H]4CC[C@@H]3[C@@H](F)C4)C2)C1)C(C)C [Example 10, 5-fluoro-2-[(4-{6-[(1S,3S,4S,5S)-5-fluoro-2-azabicyclo[2.2.2]octane-3-carbonyl]-2,6-diazaspiro[3.3]heptan-2-yl}pyrimidin-5-yl)oxy]-N,N-di(propan-2-yl)benzamide] | < 3 | particularly potent | 20 | potent | 30 | 13.3 | showed the mRNA transcription inhibition activity | 37.4 | > 10000 | more than 100 fold | >500 |
